pKi: −log10 of the molar value. Where two headings read alike, the source gives them in different places.
Columns and labels:
[1] = target: native nAChRs of rat forebrain (Rattus norvegicus, UniProt P09483+P12390); format: binding; conditions: Table 1
Method: (§1) To determine selectivities of these compounds in binding assays among the three predominant nAChR subtypes, α3β4, α4β2 and α7, the ratios of Ki values (α3β4/α4β2 and α7/α4β2) were determined.
Briefly, cultured cells at >80% confluence were removed from their flasks (80 cm^2) with a disposable cell scraper and placed in 10 mL of 50 mM Tris.HCl buffer (pH 7.4, 4° C.). The cell suspension was centrifuged at 10,000×g for 5 min and the pellet was collected. The cell pellet was then homogenized in 10 mL buffer with a polytron homogenizer and centrifuged at 36,000 g for 10 min at 4° C. The membrane pellet was resuspended in fresh buffer, and aliquots of the membrane preparation were used for binding assays. […] Bound and free ligands were separated by vacuum filtration through Whatman GF/C filters treated with 0.5% polyethylenimine. The filter-retained radioactivity was measured by liquid scintillation counting. Specific binding was defined as the difference between total binding and nonspecific binding. Data from competition binding assays were analyzed using Prism 5 (GraphPad Software, San Diego, Calif.).
We measured the in vitro binding affinities of the ligands for defined receptor subtypes (α2β2, α2β4, α3β2, α3β4, α4β2, α4Γ4, α6β2, α6β4, and α7) expressed in stably transfected cell lines. […] Rat forebrain homogenates were included to allow comparison between the heterologous and native α4β2 and α7 nAChRs.

ferrets = test: Emesis studies in ferrets; format: in vivo, ferret (Mustela putorius furo)
Method: Effects of (S)-15 in causing nausea and emesis were assessed in a ferret model. For comparison, varenicline was also tested. […] In general, all animals remained alert and active with periods of inactivity that mirrored their baseline behavior within the 1 hr observation period.
In one animal, this behavior was accompanied by oral stereotypy (licking), whereas in two animals it was interspersed by episodes of backward walking. On the average, these behaviors manifested around ˜2.20 min. […] Occasionally, when animals tried to ambulate they would immediately cease their movement after each attempt. This would, be followed by a momentary increase in breathing, giving the impression that the animal was in distress.
Studies were undertaken in male ferrets (Mustela putorius furo) weighing 0.9-1.5 kg (Marshall Farms, N.Y.). They were housed in controlled conditions of room temperature (22° C.) and light (12:12 h light-dark cycle) with free access to food and water. Prior to each experiment, food was withheld overnight, whereas water was provided ad libitum.
Emetic testing consisted of placing animals individually in a polycarbonate enclosure. Following a 30 min acclimation period, each animal randomly received a subcutaneus injection of varencline or compound (S)-15 (YL-1-127) in the subscapular region. A 60 min observation and video recording followed the drug administration. […] All drugs were dissolved in sterile saline.
Video analysis of the incidence of emesis, stereotypical behaviors (such as licking, mouth-clawing, backward walking, gagging, and burying of the head in cage) and GI side effects (diarrhea) was done off-line. Stereotypical behaviors are thought to be reflective of a subjective sensation of nausea. The emetic index of a drug was calculated as the percentage of animals displaying emesis (one or more times in 60 min) divided by the total number of animals tested. […]
The Nausea Index for the stereotypical behaviors was derived from the mean±SEM number of nausea behaviors observed among all animals in a given treatment group. Significance was determined at p<0.05.

human α4β2 nAChRs = human α4β2 nAChRs (Homo sapiens (Human), UniProt P17787+P43681); test: 86Rb+ efflux assay, agonist activity, α4β2; format: cell-based
Method: (§2) Their agonist activities were assessed by measuring stimulated ^86Rb^+ efflux from stably transfected cells, either expressing human α4β2 nAChRs or rat α3β4 receptors.
(§3) The cell lines expressing defined rat nAChR subtypes were established previously by stably transfecting HEK 293 cells with rat nAChR subunit genes. The cell line expressing human α4β2 nAChRs, YXα4β2H1, was established recently. These cell lines were maintained in minimum essential medium (MEM) supplemented with 10% fetal bovine serum, 100 units/mL penicillin G, […] and selective antibiotics at 37° C. with 5% CO2 in a humidified incubator. Fetal bovine serum was provided by Gemini Bio-Products (Woodland, Calif.). Tissue culture medium and antibiotics were obtained from Invitrogen Corporation (Carlsbad, Calif.), unless otherwise stated.
Functional properties of compounds at nAChRs expressed in the transfected cells were measured using ^86Rb^+ efflux assays as described previously. In brief, cells expressing human α4β2 or rat α3β4 nAChRs were plated into 24-well plates coated with poly-D-lysine. The plated cells were grown at 37° C. for 18 to 24 hour to reach 85-95% confluence. The cells were then incubated in growth medium (0.5 mL/well) containing ^86Rb^+ (2 μCi/mL) for 4 hour at 37° C. The loading mixture was then aspirated, and the cells were washed four times with 1 mL buffer (15 mM HEPES, 140 mM NaCl, 2 mM KCl, 1 mM MgSO4, 1.8 mM CaCl2, 11 mM Glucose, pH 7.4). One mL of buffer with or without compounds to be tested was then added to each well. After incubation for 2 min, the assay buffer was collected for measurements of ^86Rb^+ released from the cells. Cells were then lysed by adding 1 ml of 100 mM […] to each well, and the lysate was collected for determination of the amount of ^86Rb^+ that was in the cells at the end of the efflux assay. Radioactivity of assay samples and lysates was measured by liquid scintillation counting. Total loading (cpm) was calculated as the sum of the assay sample and the lysate of each well. The amount of ^86Rb^+ efflux was expressed as a percentage of ^86Rb^+ loaded. […] For obtaining EC50 and Emax values, stimulation curves were constructed in which 8 different concentrations of a ligand were included in the assay. […] EC50, Emax and IC50(10′) values were determined by nonlinear least-squares regression analyses (GraphPad, San Diego, Calif.).
The functional properties of the ligands were determined by ^86Rb^+ efflux assays in cells expressing α3β4 and α4β2 nAChR subtypes. The functional activity of each ligand was measured for its agonism, antagonism and desensitization ability. Agonist activity for each of the ligands was tested at eight different concentrations. […]

rat α4β2 nAChR = rat α4β2 nAChR (Rattus norvegicus (Rat), UniProt P09483+P12390); format: binding; conditions: versus Sazetidine-A
Method: as §1, §3
Briefly, cultured cells at >80% confluence were removed from their flasks (80 cm^2) with a disposable cell scraper and placed in 10 mL of 50 mM Tris.HCl buffer (pH 7.4, 4° C.). […] The filter-retained radioactivity was measured by liquid scintillation counting. […] Data from competition binding assays were analyzed using Prism 5 (GraphPad Software, San Diego, Calif.).
We measured the in vitro binding affinities of the ligands for defined receptor subtypes (α2β2, α2β4, α3β2, α3β4, α4β2, α4Γ4, α6β2, α6β4, and α7) expressed in stably transfected cell lines. […]

rat α3β4 nAChRs = rat α3β4 nAChRs (Rattus norvegicus (Rat), UniProt P04757+P12392); test: 86Rb+ efflux assay, agonist activity, α3β4; format: cell-based
Method: as §2
as §3, with “Tissue culture medium and antibiotics were obtained from Invitrogen Corporation (Carlsbad, Calif.), unless otherwise stated.” left out
Functional properties of compounds at nAChRs expressed in the transfected cells were measured using ^86Rb^+ efflux assays as described previously. […] Radioactivity of assay samples and lysates was measured by liquid scintillation counting. Total loading (cpm) was calculated as the sum of the assay sample and the lysate of each well. The amount of ^86Rb^+ efflux was expressed as a percentage of ^86Rb^+ loaded. […] EC50, Emax and IC50(10′) values were determined by nonlinear least-squares regression analyses (GraphPad, San Diego, Calif.).
The functional properties of the ligands were determined by ^86Rb^+ efflux assays in cells expressing α3β4 and α4β2 nAChR subtypes. […]

CCCCC#Cc1cnc(C)c(OC[C@H]2CCN2)c1 [(R)-15, (R)-3-(azetidin-2-ylmethoxy)-5-(hex-1-ynyl)-2-methylpyridine]
pKi [1]: 5.37

CCCCC#Cc1cnc(C)c(OC[C@H]2CCCN2)c1 [(R)-16, (R)-5-(hex-1-ynyl)-2-methyl-3-(pyrrolidin-2-ylmethoxy) pyridine]
pKi [1]: 3.96

CCCCC#Cc1cnc(C)c(OC[C@@H]2CCN2)c1 [(S)-15, (S)-3-(azetidin-2-ylmethoxy)-5-(hex-1-ynyl)-2-methylpyridine]
emetic episodes or stereotypical behaviors indicative of nausea (ferrets; 1-30 mg/kg s.c., 1 hr observation): did not elicit any emetic episodes or stereotypical behaviors that are indicative of nausea
pKi [1]: 7.28

CCCCC#Cc1cnc(C)c(OC[C@@H]2CCCN2)c1 [(S)-16, (S)-5-(hex-1-ynyl)-2-methyl-3-(pyrrolidin-2-ylmethoxy)pyridine]
agonist activity at α4β2 nAChRs (human α4β2 nAChRs; result in words): didn't show detectable agonist activity
pKi [1]: 6.27

Cc1ncc(C#CCCCCO)cc1OC[C@@H]1CCN1 [(S)-17, (S)-6-(5-(azetidin-2-ylmethoxy)-6-methylpyridin-3-yl)hex-5-yn-1-ol]
reduction in binding affinity for α4β2 nAChRs (rat α4β2 nAChR): 70 fold
pKi [1]: 7.96

Cc1ncc(C#CCCCCCl)cc1OC[C@@H]1CCN1 [(S)-21, (S)-3-(azetidin-2-ylmethoxy)-5-(6-chlorohex-1-ynyl)-2-methylpyridine]
agonist activity at α4β2 nAChRs (human α4β2 nAChRs; result in words): didn't show detectable agonist activity
pKi [1]: 7.49

Cc1ncc(C#CCCCCF)cc1OC[C@@H]1CCN1 [(S)-22, (S)-3-(azetidin-2-ylmethoxy)-5-(6-fluorohex-1-ynyl)-2-methylpyridine]
agonist activity at α4β2 nAChRs (human α4β2 nAChRs; result in words): didn't show detectable agonist activity

Cc1ncc(C#CC2CC2)cc1OC[C@@H]1CCN1 [(S)-27, (S)-3-(azetidin-2-ylmethoxy)-5-(cyclopropylethynyl)-2-methylpyridine]
pKi [1]: 7.51

CN1CCC[C@H]1c1cccnc1 [(−)-Nicotine, (−)-nicotine, reference compound]
agonist activity at α4β2 nAChRs (human α4β2 nAChRs): full agonist activities
agonist activity at α3β4 nAChRs (rat α3β4 nAChRs): full agonist activities

OCCCCC#Cc1cncc(OC[C@@H]2CCN2)c1 [Sazetidine-A, reference compound]
pKi [1]: 9.77

c1cnc2cc3c(cc2n1)[C@@H]1CNC[C@H]3C1 [Varenicline, varenicline]
emetic episodes (ferrets; 0.5 mg/kg s.c.): no emetic episodes were observed
time at which nausea behaviors manifested, on the average (ferrets; 0.5 mg/kg s.c.): ~2.20 min
pKi [1]: 8.96
